Assay [1] addresses binding of RAGE tail (ctRAGE) to DIAPH1 (Homo sapiens (Human), UniProt Q15109). The assay can be described thus: Primary screen (high-throughput): blocking of GFP RAGE tail binding to DIAPH1. The settings on record: for inhibition at 10 µM: Table 1; for inhibition at 12.5 µM: Table 2. The method, then:
[…] Compounds that reduced binding of RAGE tail (ctRAGE) by at least 50% were then selected and subjected to 4-point dose response (10 uM, 1 uM, 0.1 uM and 0.01 uM).
• Step 1. Add 50 μl anti-DIAPH1 (1:160 dilution in 0.1M NaHCO3 pH 9.6)/well. Incubate overnight at 4° C. Day 2 • Step 2. Use the plate washer to aspirate anti-DIAPH11 and wash plates 4× with PBS 100 μl per well per wash. • Step 3. Add 180 μl 3% BSA in 1×PBS. Incubate for 1.5 hrs at room temperature Step 4. Use the plate washer to aspirate the blocking solution and wash 5× with PBS 300 μl per well. • Step 5. Add 50 μl of DIAPH1 containing lysate (85 μg) and incubate at RT for 3 hours. • Step 6. Aspirate the lysate and wash the plate 5×(100 μl) on the plate washer. • Step 7. Add 25 μl PBS to the wells. • Step 8. Add 0.5 μL compound per well. • Step 9. Add 24.5 μL GFP RAGE tail (125 nM) into each well for 2 hrs at room temperature. • Step 10. Aspirate and wash 5× with PBS (100 μL) on the plate washer. • Step 11. Add 100 μl PBS in each well. • Step 12. Detection: Read on fluorescence plate reader excitation […] and 485 nm emission
Compounds that blocked the binding of RAGE tail to DIAPH1 by 50% or more were subjected to 4 point dose response: 10 μM, 1 μM, 0.1 μM and 0.01 μM.

The target of another assay is ctRAGE (Homo sapiens (Human), UniProt Q15109). The assay can be described thus: Kd determinations (Tables 1 and 2). It counts as binding. The settings on record: Table 2. The method, then:
Binding affinities of small molecules for either CT-RAGE or FH1 are determined by performing fluorescence titrations to generate binding isotherms and standard SPR experiments.
A number of representative quinoline compounds of this invention are or can be tested for their inhibitory activity.

For orientation: inhibition means the percentage by which the read-out fell short of the control. A high value points to a response far below the control. A word on the Kd: it is a measure of binding affinity in units of concentration. Read a high Kd as a looser complex.

Chain of ctRAGE (Q15109 23-404 limits assumed): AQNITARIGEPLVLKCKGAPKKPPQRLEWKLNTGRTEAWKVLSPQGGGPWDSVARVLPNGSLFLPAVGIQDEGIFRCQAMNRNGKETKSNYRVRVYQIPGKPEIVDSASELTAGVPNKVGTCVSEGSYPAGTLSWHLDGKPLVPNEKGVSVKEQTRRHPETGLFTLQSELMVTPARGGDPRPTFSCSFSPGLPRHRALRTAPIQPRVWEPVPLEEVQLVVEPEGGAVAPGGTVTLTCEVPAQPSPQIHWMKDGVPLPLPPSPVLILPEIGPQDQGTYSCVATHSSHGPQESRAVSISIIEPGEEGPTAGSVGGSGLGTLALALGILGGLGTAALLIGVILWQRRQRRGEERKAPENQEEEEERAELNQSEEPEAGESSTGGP
Chain of binding of RAGE tail (ctRAGE) to DIAPH1 (Q15109 364-404): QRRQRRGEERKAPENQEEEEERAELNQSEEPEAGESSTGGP

The compound `CC(=O)Nc1ccc(-c2cc(C(=O)NCCN(C)C)c3ccccc3n2)cc1` [Compound 4, 2-(4-Acetamidophenyl)-N-(2-(dimethylamino)ethyl)quinoline-4-carboxamide] returned an inhibition at 10 µM in assay [1] of 45%.
The same measure, in the same setting: then `COCCNC(=O)c1cc(-c2ccc(NC(C)=O)cc2)nc2ccccc12` [Compound 6], with 17%.
In turn, `CC(=O)Nc1ccc(-c2cc(C(=O)N3CCOCC3)c3cc(Cl)ccc3n2)cc1` [Compound 104, N-(4-(6-Chloro-4-(morpholine-4-carbonyl)quinolin-2-yl)phenyl)acetamide] had an inhibition at 12.5 µM in assay [1] of 37%. The Kd at ctRAGE amounted to 60 µM.
In the case of `CC(=O)Nc1ccc(-c2cc(CN3CCOCC3)c3cccc(Cl)c3n2)nc1` [Compound 111, N-(6-(8-Chloro-4-(morpholinomethyl)quinolin-2-yl)pyridin-3-yl)acetamide], testing at 12.5 µM in assay [1] gave an inhibition of 18%.
In assay [1], `COC(=O)c1cc(-c2ccncc2)nc2ccccc12` [Compound 8] returned an inhibition at 10 µM of 64%.
On the same count and under the same terms, then `CC(=O)Nc1ccc(-c2cc(C(=O)N3CCOCC3)c3ccccc3n2)cc1` [Compound 5, N-(4-(4-(Morpholine-4-carbonyl)quinolin-2-yl)phenyl)acetamide], with 34%; and `COC(=O)c1cc(-c2ccccc2C)nc2ccccc12` [Compound 10], with 28%.
In assay [1], `CC(=O)Nc1ccc(-c2cc(N3CCOCC3)c3ccccc3n2)cc1` [Compound 107, N-(4-(4-Morpholinoquinolin-2-yl)phenyl)acetamide] returned an inhibition at 12.5 µM of 31%. Besides, the Kd at ctRAGE is 44 µM.
Take `CC(=O)Nc1ccc(-c2cc(C(=O)N3CCCC3)c3ccccc3n2)cc1` [Compound 7]: at 10 µM the inhibition in assay [1] was 29%.
In turn, `CC(=O)Nc1ccc(-c2cc(C(=O)N3CCOCC3)c3cccc(Cl)c3n2)cn1` [Compound 102, N-(5-(8-Chloro-4-(morpholine-4-carbonyl)quinolin-2-yl)pyridin-2-yl)acetamide] showed an inhibition at 12.5 µM in assay [1] of 37%. In addition, binding at ctRAGE was characterised by a dissociation constant (Kd) of 29 µM.
Turning to `CNC(=O)c1cc(-c2ccc(C)cc2)nc2ccccc12` [Compound 11], the inhibition at 10 µM in assay [1] stood at 34%.
Still for that read-out and setting: the same measure for `CCCNC(=O)c1cc(-c2ccc(NC(=O)CC)cc2)nc2ccccc12` [Compound 3]: 36%.
For the compound `CC(=O)Nc1ccc(-c2cc(C(=O)N3CCOCC3)c3cccc(Cl)c3n2)cc1` [Compound 101, N-(4-(8-Chloro-4-(morpholine-4-carbonyl)quinolin-2-yl)phenyl)acetamide], the inhibition at 12.5 µM in assay [1] was determined as 27%. On ctRAGE, this compound had a dissociation constant (Kd) of 43 µM.
In the same order, the values of `CC(=O)Nc1ccc(-c2cc(C(=O)N3CCOCC3)c3cccc(Cl)c3n2)nc1` [Compound 103, N-(6-(8-Chloro-4-(morpholine-4-carbonyl)quinolin-2-yl)pyridin-3-yl)acetamide] are 38% and 18 µM.
On to `CC(=O)Nc1ccc(-c2cc(C(C)N3CCOCC3)c3ccccc3n2)cc1` (centres unmarked) [Compound 112, N-(4-(4-(1-Morpholinoethyl)quinolin-2-yl)phenyl)acetamide], for which, in assay [1], the inhibition at 12.5 µM came to 27%.
Still for that read-out and setting: the same measure for `CC(=O)Nc1ccc(-c2cc(CN3CCOCC3)c3cccc(Cl)c3n2)cc1` [Compound 110, N-(4-(8-Chloro-4-(morpholinomethyl)quinolin-2-yl)phenyl)acetamide]: 20%.
`CC(=O)Nc1ccc(-c2cc(CN3CCOCC3)c3ccccc3n2)nc1` [Compound 109, N-(6-(4-(Morpholinomethyl)quinolin-2-yl)pyridin-3-yl)acetamide] had an inhibition at 12.5 µM in assay [1] of 20%. The Kd at ctRAGE is 1.9 µM.
In the same order, the values of `CC(=O)Nc1ccc(-c2cc(CN3CCOCC3)c3ccccc3n2)cc1` [Compound 108, N-(4-(4-(Morpholinomethyl)quinolin-2-yl)phenyl)acetamide] are 44% and 11 µM.
In the same order, the values of `CC(=O)Nc1ccc(-c2cc(C(=O)N3CCOCC3)c3cc(Cl)ccc3n2)cn1` [Compound 105, N-(5-(6-Chloro-4-(morpholine-4-carbonyl)quinolin-2-yl)pyridin-2-yl)acetamide] are 32% and 45 µM.
In assay [1], `COC(=O)c1cc(-c2ccc(OC)cc2)nc2ccccc12` [Compound 1] displayed an inhibition at 10 µM of 51%.
Take `CC(=O)Nc1ccc(-c2cc(C(=O)N3CCOCC3)c3cc(Cl)ccc3n2)nc1` [Compound 106, N-(6-(6-Chloro-4-(morpholine-4-carbonyl)quinolin-2-yl)pyridin-3-yl)acetamide]: at 12.5 µM the inhibition in assay [1] was 35%. Moreover, the Kd on ctRAGE came out at 34 µM.
`CC(=O)Nc1ccc(-c2cc(C(=O)O)c3ccccc3n2)cc1` [Compound 9] displayed an inhibition at 10 µM in assay [1] of 25%.
Same read-out and setting: then `COC(=O)c1cc(-c2ccccc2)nc2cc(C)ccc12` [Compound 2], with 27%.

The values above are taken from patent publication US11192859B2, “Quinoline compounds as modulators of RAGE activity and uses thereof” (NEW YORK UNIVERSITY, priority 2016, dated 2021).
